Test results as given in patent publication US11753407B2, “Compounds for treating spinal muscular atrophy” (PTC Therapeutics, Inc., priority 2012, dated 2023).

Experiments:
[1] = test system: SMN2 minigene mRNA (SMN2-A minigene) in HEK293H cells; experiment: SMN2 minigene mRNA splicing RT-qPCR assay in cultured cells; format: cell-based, human; details: Homo sapiens, HEK293-H; concentration increasing full length SMN2 mRNA 1.5-fold relative to vehicle-treated cells; HEK293H cells with SMN2-A minigene, 24 hours, 7-point concentration data; read-out: EC1.5x for production of full length SMN2 mRNA
Procedure, shortened: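 Read-out: minigene-specific full-length (exon 7-included) SMN2 mRNA by one-step multiplex RT-qPCR, normalized to GAPDH and divided by vehicle-treated level. Stable SMN2-A minigene HEK293H cells, 24 h compound exposure, 7 concentrations in duplicate. EC1.5× = concentration raising FL mRNA 1.5-fold.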

[2] = test system: Smn protein in SMA patient fibroblast cells (GM03813); experiment: Smn protein assay in cultured cells (SMN HTRF); format: cell-based, human; details: SMA patient fibroblast cells, 48 hours; for EC1.5x for Smn protein expression: 7-point concentration curve, SMN HTRF, concentration producing 1.5 times Smn protein vs DMSO vehicle control; for maximum fold (Fold) increase of Smn protein: 7-point concentration data, fold relative to vehicle control
Procedure, shortened: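 Read-out: HTRF 665/620 nm ratio, blank-subtracted as ΔF, then expressed as fold over DMSO vehicle. Fibroblasts from SMA patients were exposed to compounds for 48 h (7 points, 3.16-fold steps, triplicates). Values are EC1.5× and maximum fold Smn increase.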

Compound | EC (1.5-fold increase) [1] [µM] | EC1.5x for Smn protein expression [2] | maximum fold (Fold) increase of Smn protein [2] | melting point [°C]
Cc1cn2nc(-c3cc(=O)n4cc(N5CCN6CCC[C@@H]6C5)ccc4n3)cc2c(C)n1 [Compound 337, 2-(4,6-dimethylpyrazolo[1,5-a]pyrazin-2-yl)-7-[(8aR)-hexahydropyrrolo[1,2-a]pyrazin-2(1H)-yl]-4H-pyrido[1,2-a]pyrimidin-4-one] | < 0.1 | **** (an EC1.5x≤0.3 μM is indicated by four stars (****)) | ***** (a fold increase >1.65 is indicated by five stars (*****)) | 228 to 230
CCN1CCN(c2ccc3nc(-c4cc5c(C)nc(C)cn5n4)cc(=O)n3c2)CC1 [Compound 338, 2-(4,6-dimethylpyrazolo[1,5-a]pyrazin-2-yl)-7-(4-ethylpiperazin-1-yl)-4H-pyrido[1,2-a]pyrimidin-4-one] | < 0.1 | **** (an EC1.5x≤0.3 μM is indicated by four stars (****)) | ***** (a fold increase >1.65 is indicated by five stars (*****)) | 251 to 253
Cc1cn2nc(-c3cc(=O)n4cc(N5CCC(N(C)C)CC5)ccc4n3)cc2c(C)n1 [Compound 339, 7-[4-(dimethylamino)piperidin-1-yl]-2-(4,6-dimethylpyrazolo[1,5-a]pyrazin-2-yl)-4H-pyrido[1,2-a]pyrimidin-4-one] | < 0.1 | **** (an EC1.5x≤0.3 μM is indicated by four stars (****)) | ***** (a fold increase >1.65 is indicated by five stars (*****)) | 208 to 210
Cc1cn2nc(-c3cc(=O)n4cc(N5CCNC(C)(C)C5)ccc4n3)cc2c(C)n1 [Compound 340, 7-(3,3-dimethylpiperazin-1-yl)-2-(4,6-dimethylpyrazolo[1,5-a]pyrazin-2-yl)-4H-pyrido[1,2-a]pyrimidin-4-one] | < 0.1 | **** (an EC1.5x≤0.3 μM is indicated by four stars (****)) | ***** (a fold increase >1.65 is indicated by five stars (*****)) | 195 to 197
Cc1cn2nc(-c3cc(=O)n4cc(N5CCN(C6CC6)CC5)ccc4n3)cc2c(C)n1 [Compound 341, 7-(4-cyclopropylpiperazin-1-yl)-2-(4,6-dimethylpyrazolo[1,5-a]pyrazin-2-yl)-4H-pyrido[1,2-a]pyrimidin-4-one] | 0.3 to 1 | *** (an EC1.5× between >0.3 μM and ≤1 μM is indicated by three stars (***)) | ***** (a fold increase >1.65 is indicated by five stars (*****)) | 189 to 192
COc1ccc(-c2cc(=O)n3cc(N4CCN(C)CC4)cc(C)c3n2)cc1OC [Compound 344, 2-(3,4-dimethoxyphenyl)-9-methyl-7-(4-methylpiperazin-1-yl)-4H-pyrido[1,2-a]pyrimidin-4-one] | 0.1 to 0.3 | *** (an EC1.5× between >0.3 μM and ≤1 μM is indicated by three stars (***)) | ***** (a fold increase >1.65 is indicated by five stars (*****)) | 191 to 198
CCc1cc(N2CCC(N(C)C)CC2)cn2c(=O)cc(-c3ccc(OC)c(OC)c3)nc12 [Compound 345, 2-(3,4-dimethoxyphenyl)-7-[4-(dimethylamino)piperidin-1-yl]-9-ethyl-4H-pyrido[1,2-a]pyrimidin-4-one] | < 0.1 | – | *** (a fold increase between >1.35 and ≤1.5 is indicated by three stars (***)) | 146 to 150
COc1ccc(-c2cc(=O)n3cc(C4=CCN(CCO)CC4)cc(C)c3n2)cc1OC [Compound 346, 2-(3,4-dimethoxyphenyl)-7-[1-(2-hydroxyethyl)-1,2,3,6-tetrahydropyridin-4-yl]-9-methyl-4H-pyrido[1,2-a]pyrimidin-4-one] | < 0.1 | **** (an EC1.5x≤0.3 μM is indicated by four stars (****)) | **** (a fold increase between >1.5 and ≤1.65 is indicated by four stars (****)) | 169 to 179
